In PubChem BioAssay AID652213 (The Scripps Research Institute Molecular Screening Center, 2013):
Active and inactive are the calls of the source. How the calls were made is not given here.

Target: Serine/threonine-protein phosphatase PP1-alpha catalytic subunit (Homo sapiens) (UniProt P62136)
Assay: PP1 inhibitors, OMFP dephosphorylation, late-stage follow-up, biochemical, fluorescence, OMFP substrate, set 3 (AID 652213)
Conditions: purified PP1, OMFP dephosphorylation, at 6.7 µM (top of the series)

Chain of Serine/threonine-protein phosphatase PP1-alpha catalytic subunit (Homo sapiens) (P62136 whole entry, looked up): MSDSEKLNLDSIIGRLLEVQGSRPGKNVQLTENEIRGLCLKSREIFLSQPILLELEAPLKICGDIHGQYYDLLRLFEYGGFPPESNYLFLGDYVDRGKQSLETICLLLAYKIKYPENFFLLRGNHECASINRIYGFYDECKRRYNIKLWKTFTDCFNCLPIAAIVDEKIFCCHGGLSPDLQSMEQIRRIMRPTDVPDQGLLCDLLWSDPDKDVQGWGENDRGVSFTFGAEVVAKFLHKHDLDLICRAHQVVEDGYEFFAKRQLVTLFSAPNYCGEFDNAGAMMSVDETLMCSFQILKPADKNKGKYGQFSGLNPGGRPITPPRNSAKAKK

For N#Cc1c(-c2ccc(Cl)cc2)cc(-c2cccs2)nc1SCC(=O)O, the activity was 45.4%.
In the case of COc1cc(Br)c(C(=O)c2nccc3cc(OC)c(OC)cc23)cc1OC, the activity is reported as -11.4% (inactive).
With COc1ccc(CN2C(=O)Cc3c2nc(N)c2c(N)nc(N4CCCCC4)c(C#N)c32)cc1 the activity was -0.66% (inactive).
In the case of Clc1ccc(-n2nnnc2-c2cnc(-c3ccccn3)nc2-c2cccs2)cc1, the activity is reported as 66.6%.
For COc1ccc(NC(=S)Nc2ccc3nsnc3c2)cc1, the activity was -1.36% (inactive).
c1ccc(Nc2nc(-c3ccccn3)cs2)cc1 showed an activity of 62%.
Work on Cc1ccc(-n2nc(C(=O)O)cc2-c2ccc(Cl)cc2)cc1 yielded an activity of 54.8%.
For CN1CCN(C(c2ccccn2)c2cc(Cl)c3cccnc3c2O)CC1 (centres undefined), the activity was 69.7%.
In the case of COc1cnc(-c2ccccn2)nc1Sc1cccc(Cl)c1, the activity is reported as 64.1%.
For CC(=O)C(C(C)=O)C1(O)C(=O)c2ccccc2C1=O, the activity was 1.17% (inactive).
For O=C(NC1(O)C(=O)c2ccccc2C1=O)c1c(Cl)cccc1Cl, the activity was -3.06% (inactive).
O=C(NC1(O)C(=O)c2ccccc2C1=O)c1ccc(C(F)(F)F)cc1 was tested, and the activity was 8.58% (inactive).
O=C(O)c1cc(-c2ccc(Cl)cc2)n(-c2cccc(Cl)c2)n1 was tested, and the activity was 55.6%.
COc1ccc(NC(=O)C2C3CCC(O3)C2C(=O)O)c(OC)c1 (centres undefined) gave an activity of 35.3%.
Work on COc1cnc(-c2ccccn2)nc1Sc1ccc(Cl)cc1 yielded an activity of 54.6%.
With O=C(Nc1nc(-c2ccccn2)cs1)C1CC(=O)N(c2ccc3c(c2)OCCO3)C1 (centres undefined) the activity was 42.3%.
In the case of COc1ccc(Cn2c(N)c(C(=O)NCc3ccco3)c3nc4ccccc4nc32)cc1OC, the activity is reported as 3.93% (inactive).
With COc1cnc(-c2ccccn2)nc1Sc1ccc(F)cc1 the activity was 53.8%.
With Nc1cc2nsnc2cc1Br the activity was -10.1% (inactive).
In the case of CCOc1ccc(NC(=S)Nc2ccc3nsnc3c2)cc1, the activity is reported as 2.39% (inactive).
For O=C1CCCC2=C1C1(O)C(=O)c3ccccc3C1(O)O2 (centres undefined), the activity was 3.07% (inactive).
With N#Cc1c(N2CCCC(O)C2)nc(N)c2c(N)nc3c(c12)CC(=O)N3C12CC3CC(CC(C3)C1)C2 (centres undefined) the activity was 5.14% (inactive).
In the case of COc1ccc(C(=O)c2nccc3cc(OC)c(OC)cc23)cc1OC, the activity is reported as 5.53% (inactive).
For CCOC(=O)c1cnc(-n2nc(C)cc2C)nc1NCCc1ccccc1, the activity was 68.3%.
O=c1[nH]c(Nc2ccccc2)cc2ccccc12 was tested, and the activity was 4.07% (inactive).
In the case of O=S(=O)(Cc1cc(NCc2ccccc2)nc(-c2ccccn2)n1)c1ccccc1, the activity is reported as 50%.
Molecule COc1ccccc1Sc1nc(-c2ccccn2)ncc1OC has an activity of 63.1%.
For c1ccc(-c2nccc(-c3ccc(-n4cnc5ccccc54)cc3)n2)nc1, the activity was 62.4%.
O=C(O)c1cc(-c2ccc(Cl)c(Cl)c2)n(-c2ccccc2)n1 showed an activity of 59.9%.
In the case of CCCN(CC1CC1)c1nc(N)c2c(N)nc(OC)cc2c1C#N, the activity is reported as 0.2% (inactive).
With Oc1ccccc1/C=N/Nc1cc(N2CCCC2)nc(N2CCCC2)n1 the activity was 4.03% (inactive).
Work on COc1cnc(-c2ccccn2)nc1Sc1ccccc1 yielded an activity of 64.9%.
With CCCCn1c(NC(=O)c2ccco2)c(C(=O)OCC)c2nc3ccccc3nc21 the activity was -8.57% (inactive).
CCOC(=O)c1cnc(-n2nc(C)cc2C)nc1NC(C)c1ccccc1 (centres undefined) showed an activity of 69.4%.
In the case of Cc1nnc(NC(=O)C2C3C=CC(O3)C2C(=O)O)s1 (centres undefined), the activity is reported as 2.61% (inactive).
In the case of CCOC(=O)c1sc(N2C(=O)C(O)=C(C(=O)c3ccco3)C2c2cccc([N+](=O)[O-])c2)nc1C (centres undefined), the activity is reported as 26.6%.
With Cc1ccc(C(=O)NNc2cc(N3CCCC3)nc(N3CCCC3)n2)cc1 the activity was 4.62% (inactive).
In the case of Cc1ccc(C(=O)NC2(O)C(=O)c3ccccc3C2=O)cc1C, the activity is reported as 1.19% (inactive).
CCOC(=O)c1cnc(-n2nc(C)cc2C)nc1NCc1ccccc1 showed an activity of 62.5%.
COc1cnc(-c2ccccn2)nc1Oc1cccc(C(F)(F)F)c1 was tested, and the activity was -4.64% (inactive).
CCOC(=O)c1nn(-c2ccc(C)cc2)c(=O)c2c(N)scc12 was tested, and the activity was 4.75% (inactive).
For COc1cnc(-c2ccccn2)nc1Oc1cccc(Cl)c1, the activity was 46.4%.
Work on Nc1nc(-c2ccccn2)nc(N)c1Cc1ccc(Cl)cc1Cl yielded an activity of 67.1%.
For COc1cnc(-c2ccccn2)nc1Sc1ccc(C)cc1, the activity was 62.9%.
For CCOC(=O)c1sc2nc3c(SCC(=O)O)cc(C(=O)c4cc(F)ccc4O)cn3c(=O)c2c1C, the activity was 65.9%.
Oc1cccc(/C=N/Nc2cc(N3CCCC3)nc(N3CCCC3)n2)c1 was tested, and the activity was 18.5% (inactive).
For COc1ccc(Cl)cc1C(=O)Nc1cccc(-c2ccc3nncn3n2)c1, the activity was 56.6%.
In the case of O=C(O)C1C2CCC(O2)C1C(=O)NC1CCCCC1 (centres undefined), the activity is reported as 26.2% (inactive).
With Cc1cc(C)c(S(=O)(=O)/N=C2\C=C(Sc3ncn[nH]3)C(=O)c3ccccc32)cc1C the activity was 5.84% (inactive).
In the case of O=C(NC1(O)C(=O)c2ccccc2C1=O)c1ccccc1, the activity is reported as -6.67% (inactive).
With O=C(O)c1cc(-c2ccc(Cl)c(Cl)c2)n(-c2ccc(F)cc2)n1 the activity was 57.7%.
Molecule CCn1c2ccccc2c2cc(NC(=O)COC(=O)c3ccc(NC(=O)CC#N)cc3)ccc21 has an activity of 49%.
In the case of CCCCN(CC)c1nc(N)c2c(N)nc(OCC)cc2c1C#N, the activity is reported as 4.31% (inactive).
For O=C1Nc2ccccc2N2CCCC12 (centres undefined), the activity was -7.49% (inactive).
For COc1ccc(OCCCC(=O)Nc2nc(-c3ccccn3)cs2)cc1, the activity was 26.8%.
With CCOC(=O)C1=C(C)OC2(O)c3ccccc3C(=O)C12O (centres undefined) the activity was 27.1% (inactive).
Oc1ccc(/C=N/Nc2cc(N3CCOCC3)nc(N3CCOCC3)n2)c(O)c1 was tested, and the activity was 7.02% (inactive).
With CCOC(=O)c1cnc(-n2cc(C)cn2)nc1NCc1ccc2c(c1)OCO2 the activity was 16.5% (inactive).
CCOC(=O)c1cnc(-n2nc(C)cc2C)nc1NC1CCCCC1 showed an activity of 59.7%.
Work on COc1cnc(-c2ccccn2)nc1Sc1ccccc1Cl yielded an activity of 68.7%.
For Cc1[nH]n(-c2ccccc2)c(=O)c1C(c1ccc([N+](=O)[O-])cc1)c1c(C)[nH]n(-c2ccccc2)c1=O, the activity was -6.69% (inactive).
With COc1ccc2c(Cl)c(C(=O)N/N=C/c3ccc4c(c3)OCO4)sc2c1 the activity was 20.2% (inactive).
With CC(C)(CS(=O)(=O)[O-])NC(=O)CC[N+](C)(C)CCO the activity was 49.7%.
With COc1ccc(Sc2nc(-c3ccccn3)ncc2OC)cc1 the activity was 72.4%.
